The values below come from patent US20220031680A1, “Donecopride As Neuroprotective Agent In the Treatment of Neurodegenerative Diseases” (priority 2018, published 2022).

Assay [1] has as its system C57Bl6/J mice challenged with an intracerebroventricular injection of Aβ1-42 oligomers (AβO). In words: Y-maze test (spatial working memory) in mice icv injected with AβO. Format: in vivo, mouse. The settings on record: day +4. The method, then: (§1) Briefly, 144 C57Bl6/J male mice (3 months of age) were received and housed (4 to 5 per cage) in quarantine during 7 days, or longer. Test items were dosed per os (through oral gavage) once daily at different concentrations from day −1 to day +17.
At day 0, mice received a single icv injection of vehicle or AβO.
At day +4 (i.e. four days after disease induction), spatial working memory was assessed using the Y-maze test.
(§2) The different experimental groups are defined as follow: • GROUP A (vehicle CTRL): po vehicle AND icv injection of vehicle (n=12) • GROUP B (APO CTRL): po vehicle AND icv injection of AβO (n=12) • GROUP C (positive CTRL): po Donepezil subchronic AND icv injection of AβO (n=12) • GROUP D (Donecopride CTRL): po Donecopride (9 mg/kg) AND icv injection of vehicle (n=12) • GROUP E (Flucopride CTRL): po Flucopride (9 mg/kg) AND icv injection of vehicle (n=12) • GROUP F (Donecopride Treated): po Donecopride (1 mg/kg) AND icv injection of AβO (n=12) • GROUP G (Donecopride Treated): po Donecopride (3 mg/kg) AND icv injection of AβO (n=12) • GROUP H (Donecopride Treated): po Donecopride (9 mg/kg) AND icv injection of AβO (n=12) • GROUP I (Fluocopride Treated): po Flucopride (1 mg/kg) AND icv injection of AβO (n=12) • GROUP J (Flucopride Treated): po Flucopride (3 mg/kg) AND icv injection of AβO (n=12) • GROUP K (Flucopride Treated): po Flucopride (9 mg/kg) AND icv injection of AβO (n=12) • GROUP L (positive CTRL): ip Donepezil acute on test days AND icv injection of AβO (n=12)
(§3) For per os dosing, Donecopride and Flucopride were formulated by solubilization in 0.9% NaCl. Compound dosing (total volume of 200 μL) started one day before induction of the disease (through icv injection of AβO) and was done for 19 consecutive days.
(§4) Single intra-cerebroventricular injection of 144 mice with vehicle or APO (max. 24 mice per day, all mice randomized): under anesthesia (ip injection of a mixture of ketamine/xylasine at a dose of 110 and 15 mg/kg, respectively) AβO (1 μL), or vehicle (1 μL) were injected into the right lateral ventricle. Injections were made using 10 μL Hamilton micro syringes fitted with a 26-gauge needle. The procedure was terminated by a subcutaneous injection of metacam (analgesia) at a dose of 5 mg/kg. Animals were then placed individually in their home-cage and the cage was placed in a heated cabinet until the animal has fully recovered. Animals were carefully monitored to control recovery after anesthesia.
(§5) Preparation of APO: Aβ1-42 was obtained from Bachem (ref H1368) (batch number: 1052301). The preparation of stable Aβ1-42 oligomers was performed as described in Garcia et al. (2010) J. Neurosci. 30:7516-7527. The oligomeric preparation (identified as Batch #2016-14) contained a mixture of stable trimers and tetramers of Aβ1-42, as well as monomeric forms of the peptide. All oligomer preparations used were previously characterized in terms of oligomer composition and in vitro neurotoxicity.
6 independent trials involving each 24 mice (i.e. 2 mice from each experimental group) for a total of 144 mice at day +4—Behavioral tests were performed 1 h after dosing.
Detailed protocol: Immediate spatial working memory performance was assessed by recording spontaneous alternation behavior in a Y-maze. The maze is made of opaque Plexiglas and each of the three arms is 40 cm long, 14 cm high, 10 cm wide and positioned at equal angles. The apparatus is placed in a homogeneously lit test room to obtain 12-15 lux in all arms as well as in the central zone. Mice are placed in the middle of one arm and allowed to explore the maze freely during 5 min session. The series of arm entries are video recorded (Smart v3.0 software, Bioseb) and an arm entry is considered complete when the hind paws of the mouse are completely placed in the arm. Alternation is defined as successive entries into the 3 arms on overlapping triplet sets. […]

Assay [2] has the same test system. In words: Morris water maze (learning and long-term memory) in mice icv injected with AβO. The assay is classed as in vivo, mouse. The method, then:
as §1
From days +3 to days +14, learning capacities and long-term memory were investigated in the MWM assay.
as §2, §3, §4, §5
6 independent trials involving each 24 mice (i.e. 2 mice from each experimental group) for a total of 144 mice at day +4.
Detailed protocol: Habituation trials (visible platform)—The Morris water maze (MWM) was performed as described in Garcia et al. (2010) J. Neurosci. 30:7516-7527. The experimental apparatus consists of a circular water tank (diameter=100 cm; height=50 cm) containing water at 21° C. to a depth of 25 cm and rendered opaque to block the view past the water surface by adding an aqueous acrylic emulsion. A platform (diameter=10 cm) is used and placed at the midpoint of a quadrant. The pool is located in a test room, homogeneously illuminated at 100 lux. The swimming path of the animals is recorded using a video tracking system. Mice are brought to the experimental room for at least 30 min prior to testing, to enable acclimation to the experimental room conditions. Navigation to a visible platform is carried out before place-navigation, to evaluate visual and motor abilities of all mice. […]

[3] abbreviates: ip acute on test day, icv AβO (Group L).
Setting [4] is: po sub-chronic, icv AβO (Group C).
The mark [5] stands for this setting: 9 mg/kg/day po, icv vehicle (no AβO).
[6] abbreviates: 3 mg/kg/day po, icv AβO, day 5 of training.
Where [7] appears, read: 9 mg/kg/day po, icv vehicle, day 5 of training.
Setting [8] is: at all doses (1, 3, 9 mg/kg/day po), icv AβO.

Take `COc1cc2c(cc1OC)C(=O)C(CC1CCN(Cc3ccccc3)CC1)C2` (stereo not shown) [Donepezil, reference compound]: the “alternation behavior (Y-maze)” value in assay [1] (setting [3]) is recorded as 60.8±1.9%; in assay [1] (per os subchronic, icv AβO (Group C)) it was 66.1±1.8%. For the same molecule, the “time spent in target vs opposite quadrant (MWM probe trial)” value in assay [2] (icv AβO) is “failed to improve”. Besides, the results for the “mean crossing number (MWM probe trial)” value in assay [2] (setting [3]) and in assay [2] (setting [4]) were 3.8±0.4 and 3.7±0.4, respectively. Besides, the “mean latency to target (MWM probe trial)” value amounted to 13.3 ± 2.3 s in assay [2] (setting [3]) and 14.6 ± 2.7 s in assay [2] (setting [4]). Further, the “mean escape latency (MWM learning trials)” value (“mean escape latency” for short) in assay [2] (ip acute on test day, icv AβO (Group L), day 5 of training) is 13.4 ± 1.5 s; in assay [2] (po sub-chronic, icv AβO (Group C), after five days of training (day 5)), 14.7 ± 1.9 s.

Take `COc1cc(N)c(F)cc1C(=O)CCC1CCN(CC2CCCCC2)CC1` [Flucopride]: the “alternation behavior (Y-maze)” value in assay [1] (1 mg/kg/day po, icv AβO) is recorded as 67.1±2.7%; in assay [1] (3 mg/kg/day po, icv AβO), 65.3±4.1%; in assay [1] (9 mg/kg/day po, icv AβO) it was 59.1±3.0%; in assay [1] (setting [5]), 63.1±2.3%. Moreover, the “mean escape latency” value in assay [2] (1 mg/kg/day po, icv AβO, day 5 of training) is 13.1 ± 1.1 s; in assay [2] (setting [6]) it was 12.5 ± 1.1 s; in assay [2] (9 mg/kg/day po, icv vehicle, day 4 of training), 14.2 ± 1.9 s; in assay [2] (setting [7]), 16.3 ± 2.0 s. Further, the “mean crossing number (MWM probe trial)” value in assay [2] (3 mg/kg/day po, icv AβO) is on record as 4.1±0.6; in assay [2] (9 mg/kg/day po, icv vehicle), 4.6±0.7. The “improvement of learning capacities (MWM learning trials)” value in assay [2] (9 mg/kg/day po, icv AβO) is reported as “had no effect”. The “mean latency to target (MWM probe trial)” value was 10.7 ± 1.9 s in assay [2] (9 mg/kg/day po, icv AβO) and 12.0 ± 2.1 s in assay [2] (9 mg/kg/day po, icv vehicle). Moreover, the “AβO-induced impairment of long-term memory evaluated using the number of crossings” value in assay [2] (setting [8]) is given as “inhibition”. For the same molecule, the “time spent in target vs opposite quadrant (MWM probe trial)” value in assay [2] (icv AβO) is on record as “did not improve”.

Turning to `COc1cc(N)c(Cl)cc1C(=O)CCC1CCN(CC2CCCCC2)CC1` [Donecopride], the “alternation behavior (Y-maze)” value is 56.6±3.7% in assay [1] (1 mg/kg/day po, icv AβO); 65.5±4.4% in assay [1] (3 mg/kg/day po, icv AβO); 64.3±5.1% in assay [1] (9 mg/kg/day po, icv AβO); 59.3±4.0% in assay [1] (setting [5]). Also, the “mean latency to target (MWM probe trial)” value is 9.3 ± 1.4 s in assay [2] (1 mg/kg/day po, icv AβO) and 7.2 ± 1.5 s in assay [2] (9 mg/kg/day po, icv vehicle). Moreover, the “mean crossing number (MWM probe trial)” value worked out at 5.1±0.6 in assay [2] (3 mg/kg/day po, icv AβO) and 4.6±0.5 in assay [2] (9 mg/kg/day po, icv vehicle). The “mean escape latency” value in assay [2] (setting [6]) came to 12.7 ± 1.5 s; in assay [2] (setting [7]) it was 13.0 ± 1.7 s. Besides, in assay [2] (setting [8]), the “AβO-induced impairment of long-term memory evaluated using the latency to target” value is “inhibition”. In addition, in assay [2] (setting [8]), the “AβO-induced impairment of long-term memory evaluated using the number of crossings” value was “inhibition”. The “time spent in target vs opposite quadrant (MWM probe trial)” value in assay [2] (icv AβO) was “did not improve”.
